What was measured:
[1] = target: Alpha-galactosidase (Coffea arabica) (UniProt Q42656); assay: Inhibition of coffee beans alpha-galactosidase using p-nitrophenyl glycoside as substrate assessed as release of p-nitrophenol at 1000 uM measured by spectrometric assay relative to control
[2] = target: T1, Tissue alpha-L-fucosidase (Bos taurus, UniProt Q2KIM0); assay: Inhibition of bovine kidney alpha-L-fucosidase using p-nitrophenyl glycoside as substrate assessed as release of p-nitrophenol measured by spectrometric assay
T1 sequence (Q2KIM0 whole entry): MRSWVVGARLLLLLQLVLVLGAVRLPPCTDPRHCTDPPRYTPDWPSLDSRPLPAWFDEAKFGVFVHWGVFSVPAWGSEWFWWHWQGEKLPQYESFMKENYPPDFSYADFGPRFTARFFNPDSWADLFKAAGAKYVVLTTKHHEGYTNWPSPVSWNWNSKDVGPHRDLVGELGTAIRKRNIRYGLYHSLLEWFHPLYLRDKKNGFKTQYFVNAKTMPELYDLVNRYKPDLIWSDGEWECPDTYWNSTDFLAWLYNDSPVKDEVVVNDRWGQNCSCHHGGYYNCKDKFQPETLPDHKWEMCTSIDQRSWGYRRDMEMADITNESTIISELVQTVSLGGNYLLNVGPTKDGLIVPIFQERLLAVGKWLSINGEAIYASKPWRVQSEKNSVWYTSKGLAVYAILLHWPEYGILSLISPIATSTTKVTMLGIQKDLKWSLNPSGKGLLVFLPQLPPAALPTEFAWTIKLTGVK

[3] = Inhibition of Aspergillus niger amyloglucosidase using p-nitrophenyl glycoside as substrate assessed as release of p-nitrophenol measured by spectrometric assay
[4] = system: Helix pomatia; assay: Inhibition of snail beta-mannosidase using p-nitrophenyl glycoside as substrate assessed as release of p-nitrophenol at 1000 uM measured by spectrometric assay relative to control
[5] = target: Beta-glucuronidase (Escherichia coli (strain K12)) (UniProt P05804); assay: Inhibition of Escherichia coli beta-glucuronidase using p-nitrophenyl glycoside as substrate assessed as release of p-nitrophenol at 1000 uM measured by spectrometric assay relative to control
Beta-glucuronidase (Escherichia coli (strain K12)), sequence (P05804 whole entry, looked up): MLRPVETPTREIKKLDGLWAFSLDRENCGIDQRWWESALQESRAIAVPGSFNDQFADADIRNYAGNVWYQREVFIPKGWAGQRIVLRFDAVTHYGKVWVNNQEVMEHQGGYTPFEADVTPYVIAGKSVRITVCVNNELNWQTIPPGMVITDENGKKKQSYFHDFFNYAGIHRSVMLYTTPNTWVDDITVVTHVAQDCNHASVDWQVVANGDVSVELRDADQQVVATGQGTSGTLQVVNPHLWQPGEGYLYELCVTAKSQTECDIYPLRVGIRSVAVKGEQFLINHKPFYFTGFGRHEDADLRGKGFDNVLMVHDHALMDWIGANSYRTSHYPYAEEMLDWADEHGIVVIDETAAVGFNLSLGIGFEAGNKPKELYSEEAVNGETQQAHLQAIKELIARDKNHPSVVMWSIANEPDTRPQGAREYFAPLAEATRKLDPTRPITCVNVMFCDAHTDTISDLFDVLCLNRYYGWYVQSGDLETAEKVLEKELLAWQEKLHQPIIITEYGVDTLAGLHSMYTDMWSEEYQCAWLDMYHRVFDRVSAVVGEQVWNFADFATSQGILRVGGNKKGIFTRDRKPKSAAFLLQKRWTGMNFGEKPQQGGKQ

[6] = species on record: Bos taurus; assay: Inhibition of bovine liver beta-galactosidase using p-nitrophenyl glycoside as substrate assessed as release of p-nitrophenol at 1000 uM measured by spectrometric assay relative to control
[7] = target: T2, Tissue alpha-L-fucosidase (Bos taurus) (UniProt Q2KIM0); assay: Inhibition of bovine kidney alpha-L-fucosidase using p-nitrophenyl glycoside as substrate assessed as release of p-nitrophenol at 1000 uM measured by spectrometric assay relative to control; format: tissue-based
T2 sequence (whole entry): T1 sequence (Q2KIM0 whole entry)

[8] = species on record: Sus scrofa; assay: Inhibition of porcine kidney alpha-trehalase using p-nitrophenyl glycoside as substrate assessed as release of p-nitrophenol at 1000 uM measured by spectrometric assay relative to control
[9] = target: T3, Alpha-mannosidase (Canavalia ensiformis) (UniProt C0HJB3); assay: Inhibition of jack bean alpha-mannosidase using p-nitrophenyl glycoside as substrate assessed as release of p-nitrophenol at 1000 uM measured by spectrometric assay relative to control
T3 sequence (whole entry): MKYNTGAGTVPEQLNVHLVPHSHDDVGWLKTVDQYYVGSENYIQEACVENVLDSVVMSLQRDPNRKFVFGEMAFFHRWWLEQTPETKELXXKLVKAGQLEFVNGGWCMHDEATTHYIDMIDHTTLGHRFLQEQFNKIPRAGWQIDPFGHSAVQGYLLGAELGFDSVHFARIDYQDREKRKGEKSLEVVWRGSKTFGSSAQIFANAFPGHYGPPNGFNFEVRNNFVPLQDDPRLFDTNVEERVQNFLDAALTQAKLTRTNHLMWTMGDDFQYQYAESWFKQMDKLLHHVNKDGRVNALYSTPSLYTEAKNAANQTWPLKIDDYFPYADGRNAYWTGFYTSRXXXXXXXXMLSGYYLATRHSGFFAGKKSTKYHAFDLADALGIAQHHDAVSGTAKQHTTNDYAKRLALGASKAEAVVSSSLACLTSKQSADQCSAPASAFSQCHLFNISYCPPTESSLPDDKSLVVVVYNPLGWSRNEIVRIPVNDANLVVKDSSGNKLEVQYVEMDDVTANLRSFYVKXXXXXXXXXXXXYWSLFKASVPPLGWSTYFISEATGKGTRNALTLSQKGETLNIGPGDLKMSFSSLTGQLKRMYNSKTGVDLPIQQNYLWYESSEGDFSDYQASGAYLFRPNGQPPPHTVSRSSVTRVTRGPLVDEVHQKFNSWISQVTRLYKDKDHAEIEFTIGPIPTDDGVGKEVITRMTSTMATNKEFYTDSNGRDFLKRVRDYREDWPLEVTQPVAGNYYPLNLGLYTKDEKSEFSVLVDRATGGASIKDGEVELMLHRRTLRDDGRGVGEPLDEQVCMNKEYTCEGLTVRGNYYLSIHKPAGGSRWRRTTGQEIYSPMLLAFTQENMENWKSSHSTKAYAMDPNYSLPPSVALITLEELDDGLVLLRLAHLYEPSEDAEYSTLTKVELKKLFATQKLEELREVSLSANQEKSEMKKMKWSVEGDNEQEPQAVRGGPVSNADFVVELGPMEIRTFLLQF

[10] = Inhibition of Penicillium decumbens alpha-L-rhamnosidase using p-nitrophenyl glycoside as substrate assessed as release of p-nitrophenol measured by spectrometric assay
[11] = target: Beta-glucuronidase (Escherichia coli (strain K12), UniProt P05804); assay: Inhibition of Escherichia coli beta-glucuronidase using p-nitrophenyl glycoside as substrate assessed as release of p-nitrophenol measured by spectrometric assay
Beta-glucuronidase, sequence (P05804 whole entry): as the sequence (P05804 whole entry, looked up) above

[12] = Inhibition of rat intestinal maltase using maltose as substrate assessed as release of D-glucose measured by spectrometric assay
[13] = Inhibition of bovine liver beta-glucosidase using p-nitrophenyl glycoside as substrate assessed as release of p-nitrophenol measured by spectrometric assay; parameters: species or system Bos taurus
[14] = target: T4, Sucrase-isomaltase, intestinal (Rattus norvegicus, UniProt P23739); assay: Inhibition of rat intestinal isomaltase using p-nitrophenyl glycoside as substrate assessed as release of p-nitrophenol measured by spectrometric assay
T4 sequence (P23739 1-1013 limits assumed): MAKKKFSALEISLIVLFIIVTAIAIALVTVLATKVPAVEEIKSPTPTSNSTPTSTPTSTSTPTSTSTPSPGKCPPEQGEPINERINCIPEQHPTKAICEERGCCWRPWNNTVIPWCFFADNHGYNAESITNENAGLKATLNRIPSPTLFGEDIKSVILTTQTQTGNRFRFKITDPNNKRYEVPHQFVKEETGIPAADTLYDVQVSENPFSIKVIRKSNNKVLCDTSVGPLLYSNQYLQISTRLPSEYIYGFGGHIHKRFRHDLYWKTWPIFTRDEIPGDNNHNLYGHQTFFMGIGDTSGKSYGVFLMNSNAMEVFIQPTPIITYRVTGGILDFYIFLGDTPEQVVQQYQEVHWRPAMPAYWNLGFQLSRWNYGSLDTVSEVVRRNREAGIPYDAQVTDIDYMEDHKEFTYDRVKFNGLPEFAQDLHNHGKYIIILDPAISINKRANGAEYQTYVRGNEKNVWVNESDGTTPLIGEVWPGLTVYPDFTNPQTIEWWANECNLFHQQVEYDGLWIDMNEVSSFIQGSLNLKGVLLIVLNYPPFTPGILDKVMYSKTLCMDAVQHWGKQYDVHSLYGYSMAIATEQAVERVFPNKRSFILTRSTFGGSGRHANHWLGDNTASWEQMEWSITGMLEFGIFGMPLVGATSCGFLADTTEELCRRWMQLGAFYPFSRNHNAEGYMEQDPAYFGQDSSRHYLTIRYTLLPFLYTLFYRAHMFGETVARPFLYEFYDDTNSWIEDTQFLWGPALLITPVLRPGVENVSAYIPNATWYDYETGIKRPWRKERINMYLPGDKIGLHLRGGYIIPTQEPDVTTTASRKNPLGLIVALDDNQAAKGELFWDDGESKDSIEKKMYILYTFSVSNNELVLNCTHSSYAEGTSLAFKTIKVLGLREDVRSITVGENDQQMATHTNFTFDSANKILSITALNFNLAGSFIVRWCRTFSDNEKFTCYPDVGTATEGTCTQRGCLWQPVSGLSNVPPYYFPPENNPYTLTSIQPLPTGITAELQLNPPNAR
T4 sequence (P23739 1014-1841 limits assumed): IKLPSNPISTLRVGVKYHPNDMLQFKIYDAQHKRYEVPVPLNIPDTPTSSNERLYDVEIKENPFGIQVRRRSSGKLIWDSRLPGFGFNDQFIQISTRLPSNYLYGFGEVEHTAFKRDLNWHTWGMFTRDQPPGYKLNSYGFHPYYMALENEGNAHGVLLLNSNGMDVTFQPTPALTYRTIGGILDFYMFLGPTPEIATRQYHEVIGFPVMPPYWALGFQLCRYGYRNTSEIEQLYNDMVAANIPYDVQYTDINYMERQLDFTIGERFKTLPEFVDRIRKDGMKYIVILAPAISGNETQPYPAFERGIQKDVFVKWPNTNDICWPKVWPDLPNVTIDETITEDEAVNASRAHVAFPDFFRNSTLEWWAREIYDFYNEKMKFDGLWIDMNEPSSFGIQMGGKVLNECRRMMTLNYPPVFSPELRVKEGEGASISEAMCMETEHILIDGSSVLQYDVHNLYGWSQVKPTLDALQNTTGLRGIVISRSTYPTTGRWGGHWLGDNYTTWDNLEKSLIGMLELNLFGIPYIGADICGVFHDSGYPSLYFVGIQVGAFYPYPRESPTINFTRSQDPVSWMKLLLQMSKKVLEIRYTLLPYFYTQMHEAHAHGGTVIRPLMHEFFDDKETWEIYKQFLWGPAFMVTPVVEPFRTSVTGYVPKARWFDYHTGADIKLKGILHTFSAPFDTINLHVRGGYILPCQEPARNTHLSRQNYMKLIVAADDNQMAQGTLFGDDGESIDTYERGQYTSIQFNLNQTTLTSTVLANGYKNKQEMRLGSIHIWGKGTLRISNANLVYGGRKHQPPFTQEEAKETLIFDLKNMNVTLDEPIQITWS

[15] = Inhibition of rice alpha-glucosidase using p-nitrophenyl glycoside as substrate assessed as release of p-nitrophenol measured by spectrometric assay; parameters: species or system Oryza sativa
[16] = system: Prunus dulcis; assay: Inhibition of almond beta-glucosidase using p-nitrophenyl glycoside as substrate assessed as release of p-nitrophenol at 1000 uM measured by spectrometric assay relative to control
[17] = target: Alpha-galactosidase (Coffea arabica, UniProt Q42656); assay: Inhibition of coffee beans alpha-galactosidase using p-nitrophenyl glycoside as substrate assessed as release of p-nitrophenol measured by spectrometric assay
Alpha-galactosidase, sequence (Q42656 whole entry): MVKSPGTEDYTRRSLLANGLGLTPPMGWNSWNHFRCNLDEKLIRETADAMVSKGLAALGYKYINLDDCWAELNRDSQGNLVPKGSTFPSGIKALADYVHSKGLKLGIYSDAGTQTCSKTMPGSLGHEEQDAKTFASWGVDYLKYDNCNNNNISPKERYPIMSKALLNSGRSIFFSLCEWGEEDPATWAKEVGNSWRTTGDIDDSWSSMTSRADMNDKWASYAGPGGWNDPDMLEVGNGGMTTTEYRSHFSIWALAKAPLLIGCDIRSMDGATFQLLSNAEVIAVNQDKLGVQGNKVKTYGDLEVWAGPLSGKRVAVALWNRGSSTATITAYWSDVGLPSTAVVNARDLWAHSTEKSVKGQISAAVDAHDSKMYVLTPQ

[18] = species on record: Rattus norvegicus; assay: Inhibition of rat intestinal maltase using maltose as substrate assessed as release of D-glucose at 1000 uM measured by spectrometric assay
[19] = species on record: Bos taurus; assay: Inhibition of bovine liver beta-glucosidase using p-nitrophenyl glycoside as substrate assessed as release of p-nitrophenol at 1000 uM measured by spectrometric assay relative to control; format: tissue-based
[20] = Inhibition of snail beta-mannosidase using p-nitrophenyl glycoside as substrate assessed as release of p-nitrophenol measured by spectrometric assay; parameters: species or system Helix pomatia
[21] = Inhibition of almond beta-glucosidase using p-nitrophenyl glycoside as substrate assessed as release of p-nitrophenol measured by spectrometric assay; parameters: species or system Prunus dulcis
[22] = system: Penicillium decumbens; assay: Inhibition of Penicillium decumbens alpha-L-rhamnosidase using p-nitrophenyl glycoside as substrate assessed as release of p-nitrophenol at 1000 uM measured by spectrometric assay relative to control
[23] = Inhibition of jack bean alpha-mannosidase using p-nitrophenyl glycoside as substrate assessed as release of p-nitrophenol measured by spectrometric assay; parameters: species or system Canavalia ensiformis
[24] = Inhibition of bovine liver beta-galactosidase using p-nitrophenyl glycoside as substrate assessed as release of p-nitrophenol measured by spectrometric assay; format: tissue-based, Bos taurus
[25] = system: Aspergillus niger; assay: Inhibition of Aspergillus niger amyloglucosidase using p-nitrophenyl glycoside as substrate assessed as release of p-nitrophenol at 1000 uM measured by spectrometric assay relative to control
[26] = target: T4, Sucrase-isomaltase, intestinal; assay: Inhibition of rat intestinal sucrase using p-nitrophenyl glycoside as substrate assessed as release of p-nitrophenol measured by spectrometric assay
[27] = Inhibition of porcine kidney alpha-trehalase using p-nitrophenyl glycoside as substrate assessed as release of p-nitrophenol measured by spectrometric assay; parameters: species or system Sus scrofa
[28] = system: Oryza sativa; assay: Inhibition of rice alpha-glucosidase using p-nitrophenyl glycoside as substrate assessed as release of p-nitrophenol at 1000 uM measured by spectrometric assay

Alpha-galactosidase (Coffea arabica), sequence (Q42656 16-378 limits assumed): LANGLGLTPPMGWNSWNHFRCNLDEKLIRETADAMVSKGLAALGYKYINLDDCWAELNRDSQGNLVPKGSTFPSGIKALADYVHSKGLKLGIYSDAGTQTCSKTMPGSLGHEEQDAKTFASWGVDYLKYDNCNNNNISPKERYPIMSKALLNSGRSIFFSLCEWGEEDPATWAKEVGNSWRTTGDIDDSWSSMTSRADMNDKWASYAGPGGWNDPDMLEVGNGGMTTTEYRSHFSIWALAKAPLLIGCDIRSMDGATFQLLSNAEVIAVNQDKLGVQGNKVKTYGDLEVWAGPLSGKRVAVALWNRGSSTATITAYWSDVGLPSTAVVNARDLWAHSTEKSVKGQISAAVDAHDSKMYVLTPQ

Row | inhibition [1] | IC50 [2] | IC50 [3] | inhibition [4] | inhibition [5] | inhibition [7] | inhibition [8] | inhibition [9] | IC50 [10] | IC50 [11] | IC50 [12] | IC50 [14] | inhibition [16] | IC50 [17] | inhibition [18] | IC50 [20] | IC50 [21] | inhibition [22] | IC50 [23] | inhibition [25] | Compound | further results
1 | 3.3% | Not Active | Not Active | 4.9% | 9.4% | 5.5% | 0% | 9.6% | Not Active | Not Active | 224 µM | Not Active | 14.8% | Not Active | 23.2% | Not Active | Not Active | 6% | Not Active | 0.83% | CCCCCCCC[C@@]1(CO)NC[C@H](O)[C@@H](O)[C@@H]1O.Cl | inhibition [6]: 44.9%; IC50 [13]: Not Active; IC50 ([15]; read-out: IC50): 123 µM; inhibition [19]: 19%; IC50 [24]: Not Active; IC50 [26]: Not Active; IC50 [27]: Not Active
2 | 0% | Not Active | Not Active | 0.5% | 13.9% | 0% | 0% | 3.3% | Not Active | Not Active | 660 µM | Not Active | 7.6% | Not Active | 2.3% | Not Active | Not Active | 1.2% | Not Active | 0% | CCCCCCCCCCCC[C@@]1(CO)NC[C@H](O)[C@@H](O)[C@@H]1O.Cl | inhibition [28]: 33.6%; IC50 ([13]; read-out: IC50): 47 µM; IC50 [15]: Not Active; IC50 ([24]; read-out: IC50): 17 µM; IC50 [26]: Not Active; IC50 [27]: Not Active
3 | 1.7% | Not Active | Not Active | 4% | 3.9% | 0% | 5.3% | 1.2% | Not Active | Not Active | 156 µM | Not Active | 4.4% | Not Active | 15.1% | Not Active | Not Active | 0% | Not Active | 0% | CCCCC[C@@]1(CO)NC[C@H](O)[C@@H](O)[C@@H]1O.Cl | inhibition [6]: 18.7%; IC50 [13]: Not Active; IC50 ([15]; read-out: IC50): 48 µM; inhibition [19]: 9.2%; IC50 [24]: Not Active; IC50 [26]: Not Active; IC50 [27]: Not Active
4 | 9.6% | Not Active | Not Active | 4.9% | 42.1% | 30.4% | 2.7% | 13.8% | Not Active | Not Active | 134 µM | Not Active | 19.5% | Not Active | 0% | Not Active | Not Active | 2.7% | Not Active | 2.3% | CCC[C@@]1(CO)NC[C@H](O)[C@@H](O)[C@@H]1O.Cl | inhibition [6]: 15.4%; IC50 [13]: Not Active; IC50 ([15]; read-out: IC50): 82 µM; inhibition [19]: 9.1%; IC50 [24]: Not Active; IC50 ([26]; read-out: IC50): 94 µM; IC50 [27]: Not Active

— ChEMBL document CHEMBL4828725 (Eur J Med Chem, 2021)
